The source of these data is paper PMC10938758, “A phenotypic screen of the Global Health Priority Box identifies an insecticide with anthelmintic activity” (Parasites & Vectors, 2024).

Data set [1] can be described thus: Cytotoxicity on HepG2 cells (glucose medium, crystal violet). The class given is cell-based. The settings on record: human, D-glucose medium, read-out: half-maximal cytotoxic concentration (CC50). As for the experimental part: The cytotoxic and mitotoxic activity of MMV1794206 on HepG2 human hepatoma cells was evaluated using an established protocol. The test compounds were serially diluted (seven-point, twofold serial dilution, 40–0.63 µM) in Dulbecco’s modified Eagle medium (DMEM; Thermo Fisher Scientific, USA), with GlutaMax™ supplemented with 25 mM D-glucose (cytotoxicity) or D-galactose (mitotoxicity), 10% heat-inactivated foetal bovine serum (FBS), 100 IU/ml of penicillin, 100 µg/ml of streptomycin and 0.25 µg/ml of amphotericin B (denoted as DMEM*). Monepantel and moxidectin (prepared in the same manner as the test compound) were included as reference compounds. Two compounds, doxorubicin (cytotoxic; Sigma-Aldrich, USA) and M-666 (mitotoxic; [57]), were used as positive controls at a single concentration of 10 µM. A solution of DMEM* + 0.25% (v/v) DMSO was used as a negative control. HepG2 cells were seeded into wells of a 96-well plate in 80 µl of DMEM* (at 1 × 10^5 cells per well) and allowed to adhere for 16 h at 37 °C and 5% (v/v) CO2 at > 90% humidity prior to incubation with individual compounds, at a final volume of 100 µl. […] Following 48 h of incubation with compounds, cell viability was determined by crystal violet staining. The absorbance (595 nm) of treated cells was normalised using the negative controls (viability: 100%) to calculate the cell viability. […]

The subject of another data set is C. elegans young adults. As to the kind of experiment: C. elegans dose-response assay, motility. Further details: species or system Caenorhabditis elegans. The method, then: The dose–response assay for C. elegans followed a well-established protocol and was employed to evaluate the potency of hit compounds against this nematode. Test and positive-control compounds as well as negative controls were prepared in 96-well microplates (cf.). One hundred C. elegans in 50 μl of LB* were added to each well to give a final volume of 100 μl. Plates were then placed in an incubator at 20 °C for 40 h. At 40 h, worm activity was captured using a WMicroTracker ONE unit. Raw activity counts for each well were normalised to the negative controls. The compound concentrations were log10-transformed and fitted using a variable-slope four-parameter equation, using the ordinary least squares fit model, employing GraphPad Prism (v.9.1.0). A one-way ANOVA with a Tukey multiple comparison test or an unpaired t-test was used to establish statistically significant differences in larval motility.

In data set [2] the test system is exsheathed third-stage larvae (xL3s) of Haemonchus contortus. Nature of the data set: Primary screen, H. contortus larval development and phenotype (microscopy). Particulars: 20 µM, 168 h. As for the experimental part: An established high-throughput phenotypic screening assay was used to test the anthelmintic activity of compounds on H. contortus xL3s. Compounds were assessed for motility inhibition at a concentration of 20 µM in LB*. […] A solution of LB* + 1% (v/v) DMSO was used as a negative control. Test compounds were distributed amongst one flat-bottom, 384-well microplate (cat no. 3860; Corning, Corning, NY, USA). Eighty xL3s of H. contortus in 20 µl of LB* were added to each well to give a final volume of 40 µl. The plate was then placed in a CO2 incubator (10% [v/v] CO2, 38 °C, > 90% humidity). At 90 h, worm activity was captured using a WMicroTracker ONE unit (Phylumtech, Sunchales, Santa Fe, Argentina). Over a period of 15 min, disturbance of an infrared beam in individual wells was recorded as a worm ‘activity count’. Activity counts were then normalised to the positive and negative controls using the GraphPad Prism program (v.9.1.0 GraphPad Software, San Diego, CA, USA). The screening plate was then returned to the incubator (10% [v/v] CO2, 38 °C, > 90% humidity) for an additional 72 h. At 168 h, worms were fixed with 40 µl of Lugol solution (Sigma-Aldrich, St. Louis, MO, USA). Compounds were then assessed (microscopically) for inhibition of larval development and/or induction of a non-wild-type phenotype in H. contortus worms. […] The performance of the assay was monitored using the Z′-factor [58] calculated using data for the negative (DMSO) and positive (M-666) control compounds on individual plates.

Structures are written as SMILES. Some results are limits rather than exact numbers.

Usually IC50 stands for the point on the concentration scale where inhibition reaches its midpoint. As a reminder, the inhibition is how much of the control response was suppressed.

For the molecule `CC(F)c1ncnc(NCCc2ccc(OC(F)(F)F)cc2)c1Cl` (stereo not drawn) [MMV1794206, flufenerim], the CC50 at 48 h in data set [1] is under 700 nM. Further, in the data set on C. elegans young adults (40 h of incubation), the “Maximum motility inhibition (MMI), C. elegans” value came out at 100%. Further, the IC50 in the data set on C. elegans young adults (Caenorhabditis elegans, 40 h, read-out: IC50, C. elegans young adult motility, 40 h of incubation) amounted to 220 nM. Besides, in data set [2] (H. contortus larvae), the Abnormal phenotype entry was “Cur” and the “Induction of an abnormal phenotype (in words)” value is given as “induced an abnormal phenotype”. Further, the inhibition at 20 µM in data set [2] (Haemonchus contortus, H. contortus, read-out: Larval development inhibition, %) was found to be 100%.
